Earlier results as cited in US20240101656A1, “PLK1 INHIBITOR IN COMBINATION WITH ANTI-ANGIOGENICS FOR TREATING METASTATIC CANCER” (CARDIFF ONCOLOGY, INC., priority 2022, published 2024).
Like-named read-outs stand apart in the source and are kept apart here.

Experiments:
AML = conditions: in combination with LDAC
[1] = system: patients with AML who were treatment naïve yet unsuitable for induction therapy; conditions: intravenously, in combination with LDAC
[2] = 2nd line
[3] = system: HT29 human colon adenocarcinoma xenografts; conditions: combination therapy with irinotecan
[4] = system: cell lines, both from solid as well as hematologic tumors
[5] = in vivo
[6] = system: patients with advanced/metastatic solid tumors
xenograft models of AML = conditions: in vivo
PLK1 = PLK1 (Homo sapiens, UniProt P53350)
xenograft tumor = conditions: well tolerated doses, oral administration
[7] = system: disseminated models of AML

Chain of PLK1 (P53350 whole entry): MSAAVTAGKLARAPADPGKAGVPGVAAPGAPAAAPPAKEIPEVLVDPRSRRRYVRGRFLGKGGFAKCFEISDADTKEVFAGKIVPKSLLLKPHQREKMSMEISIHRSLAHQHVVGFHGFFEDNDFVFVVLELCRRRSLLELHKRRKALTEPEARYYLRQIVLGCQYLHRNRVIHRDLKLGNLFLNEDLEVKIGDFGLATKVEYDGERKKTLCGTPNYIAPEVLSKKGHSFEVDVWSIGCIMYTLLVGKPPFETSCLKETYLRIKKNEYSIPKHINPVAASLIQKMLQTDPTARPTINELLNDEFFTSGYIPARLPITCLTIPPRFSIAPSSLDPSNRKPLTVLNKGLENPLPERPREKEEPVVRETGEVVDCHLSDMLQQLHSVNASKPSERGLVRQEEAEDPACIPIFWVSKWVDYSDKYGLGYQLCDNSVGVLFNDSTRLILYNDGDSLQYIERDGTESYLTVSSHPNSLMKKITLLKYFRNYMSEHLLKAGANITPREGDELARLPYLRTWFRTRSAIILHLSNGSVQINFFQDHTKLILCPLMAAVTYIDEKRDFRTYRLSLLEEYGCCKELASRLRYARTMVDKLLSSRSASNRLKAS

## CC[C@@H]1C(=O)N(C)c2cnc(Nc3ccc(C(=O)N[C@H]4CC[C@H](N5CCN(CC6CC6)CC5)CC4)cc3OC)nc2N1C(C)C [volasertib (BI6727)]
AML
  benefit of the combination: no benefit
  risk of severe infections: increased risk of severe infections
[1]
  OS compared with LDAC alone: significant increase in OS

## bev: anti-angiogenics; Bevacizumab (also referred to herein as "bev")
[2]; bev naïve
  mOS: 13.9 months
  mPFS: 6.9 months
[2]; prior bev
  mOS: 12.5 months
  mPFS: 6.7 months

## CN1CCN(c2ccc(OC(F)(F)F)c(Nc3ncc4c(n3)-c3c(c(C(N)=O)nn3CCO)CC4)c2)CC1 [onvansertib, 1-(2-hydroxyethyl)-8-{[5-(4-methylpiperazin-1-yl)-2-(trifluoromethoxy)phenyl]amino}-4,5-dihydro-1H-pyrazolo[4,3-h]quinazoline-3-carboxamide]
[3]
  tumor regression compared to each agent alone: enhanced tumor regression
[4]
  activity in proliferation assays: low nanomolar activity
Cancer cell lines
  cell-cycle effect: mitotic cell-cycle arrest followed by apoptosis
[5]
  oral bioavailability: good oral bioavailability
[6]; in vivo
  primary dose-limiting toxicities: neutropenia and thrombocytopenia
[6]; reversible
  recovery from hematologic toxicities: ≤ 3 weeks
AML cell lines
  concentrations inhibiting cell proliferation: nanomolar concentrations
Xenograft models of AML
  tumor growth: inhibited
PLK1
  specificity for PLK1 among a panel of 296 kinases, including other PLK members: high specificity
Xenograft tumor
  xenograft tumor growth: inhibits xenograft tumor growth
[7]; combination therapy with cytarabine
  survival of animals: prolonged survival
[7]; in combination with cytarabine
  cytarabine antitumor activity: significantly increased
